Patent US12338283B2, “Methods for targeting the immune checkpoint PD1 pathway for treating pulmonary fibrosis” (CEDARS-SINAI MEDICAL CENTER, priority 2017, dated 2025)

What was measured:
patients with IPF = conditions: cited from earlier work
CD274+ IPF fibroblasts = assay: Matrigel invasion assay of flow-sorted IPF lung fibroblasts; format: cell-based, human
Experimental: (§1) CD274+ and CD274-fibroblast were flow sorted from fibroblasts of healthy and IPF lungs. The cells were plated onto transwells for migration assay, with and without anti-CD274 antibody (α-CD274) and control IgG. Migratory fibroblasts were fixed, stained, and photographed. […] CD274+ and CD274− fibroblast were flow sorted from fibroblasts of healthy and IPF lungs. The cells were plated onto matrigel chamber for invasion assay, with and without anti-CD274 antibody (α-CD274) and control IgG. Invasive fibroblasts were fixed, stained, and photographed.
FIG. 10A is a schematic representation of an in vitro invasion assay: Lung fibroblasts were seeded in the upper part of transwells. Cells attached to the bottom of Matrigel-coated membrane after 24 h were considered invasive fibroblasts. Cells that remained on top of Matrigel-coated membrane were considered non-invasive fibroblasts. […]
FIG. 19A-J show CD274 and FAK signaling are required for lung fibroblast invasion. […] FIG. 19B and FIG. 19C are graphs that show cell migration index or invasion index, which was calculated as the number of cells attached to the bottom of control or Matrigel-coated membrane after 24 h, normalized to respective CD274^low lung fibroblasts. […]
(§2) CD274+ and CD274− fibroblasts from IPF and healthy lungs were flow sorted and analyzed with an invasion assay.

CD274+ fibroblasts = assay: Transwell migration assay of flow-sorted IPF lung fibroblasts; format: cell-based, human; conditions: CD274^low and CD274^high IPF fibroblasts, 24 h, vs vehicle DMSO (FIG. 19A-C)
Experimental: as §1
FIG. 19A-J show CD274 and FAK signaling are required for lung fibroblast invasion. In the experimental results shown in FIG. 19A-FIG. 19C, equal number of cells were seeded in the upper part of transwells and cell migration and invasion assays were performed (n=3 per group). […] Scale bar: 1 mm. FIG. 19B and FIG. 19C are graphs that show cell migration index or invasion index, which was calculated as the number of cells attached to the bottom of control or Matrigel-coated membrane after 24 h, normalized to respective CD274^low lung fibroblasts. […] GAPDH served as equal loading control. FIG. 19E, FIG. 19G, and FIG. 19I show hydroxyproline contents in lung tissues. […]
as §2

[1] = tested on: NSG mice injected with CD274^high IPF fibroblasts; assay: Humanized SCID IPF model: lung fibrosis (hydroxyproline, Masson trichrome) in NSG mice injected with IPF fibroblasts; format: in vivo, mouse; conditions: mice receiving CD274^high lung fibroblasts, compared with vehicle (CMC-Na) treated mice (FIG. 19E, 19F)
Experimental: FIG. 19A-J show CD274 and FAK signaling are required for lung fibroblast invasion. In the experimental results shown in FIG. 19A-FIG. 19C, equal number of cells were seeded in the upper part of transwells and cell migration and invasion assays were performed (n=3 per group). […] Scale bar: 1 mm. FIG. 19B and FIG. 19C are graphs that show cell migration index or invasion index, which was calculated as the number of cells attached to the bottom of control or Matrigel-coated membrane after 24 h, normalized to respective CD274^low lung fibroblasts. […] GAPDH served as equal loading control. FIG. 19E, FIG. 19G, and FIG. 19I show hydroxyproline contents in lung tissues. FIG. 19F, FIG. 19H and FIG. 19J show Masson trichrome staining of collagen on lung sections from NSG mice injected with CD274^low and CD274^high IPF fibroblasts treated with VS4718, vehicle control CMC-Na, or from NSG mice receiving gRNA-CTL or CD274 KO lung fibroblasts (n=6 per group), or from NSG mice injected with CD274^high IPF fibroblasts treated with Q-CD274 (n=12 per group) or isotype control IgG (n=12 for D0-35 IgG, n=11 for D35-63 IgG). Scale bars (FIG. 19F, FIG. 19H): 1 mm (top panel), 100 μm (middle and lower panels). Throughout, data are mean±sem. *P<0.05; **P<0.01 by student's t test (FIG. 19B, FIG. 19C, FIG. 19E, FIG. 19G).
The effect of the inhibition is assessed with hyroxyproline assay. […]

COc1ccccc1Oc1c(NS(=O)(=O)c2ccc(C(C)(C)C)cc2)nc(-c2ncccn2)nc1OCCO [Bosentan]
clinical benefit in patients with IPF (patients with IPF): not better than placebo

Cc1ccc(=O)n(-c2ccccc2)c1 [Pirfenidone]
disease progression (patients with IPF): reduces disease progression | improve lung function or reduce fibrosis (patients with IPF): neither

CNC(=O)c1ccccc1Nc1cc(Nc2ccc(N3CCOCC3)cc2OC)ncc1C(F)(F)F [VS4718]
cell invasion of lung fibroblasts (CD274+ IPF fibroblasts; CD274^low and CD274^high IPF fibroblasts, Matrigel-coated membrane, 24 h, vs vehicle DMSO (FIG. 19A-C)): significantly blocked | invasiveness / invasive phenotype of CD274+ fibroblasts (CD274+ IPF fibroblasts; flow-sorted CD274+ IPF fibroblasts, matrigel chamber): reduced invasiveness | cell migration of lung fibroblasts (CD274+ fibroblasts): significantly blocked | development of fibrosis [1]: prevented the development of fibrosis

CC(=O)N[C@@H](CS)C(=O)O [acetylcysteine]
clinical benefit in patients with IPF (patients with IPF): some benefits

COC(=O)c1ccc2c(c1)NC(=O)/C2=C(\Nc1ccc(N(C)C(=O)CN2CCN(C)CC2)cc1)c1ccccc1 [nintedanib]
improve lung function or reduce fibrosis (patients with IPF): neither

B1: Interferon gamma-1b: interferon-gamma replenishment tested in IPF trials (protein, UniProt P01579 24-161, looked up)
Interferon gamma: QDPYVKEAENLKKYFNAGHSDVADNGTLFLGILKNWKEESDRKIMQSQIVSFYFKLFKNFKDDQSIQKSVETIKEDMNVKFFNSNKKKRDDFEKLTNYSVTDLNVQRKAIHELIQVMAELSPAAKTGKRKRSQMLFRG
survival for patients with IPF (patients with IPF): did not improve survival
